In patent US4882349A, “Pyrrolacetic amides having antiinflammatory activity” (priority 1982, dated 1989):

Assays:
[1] = system: carrageenin-induced oedema; assay: carrageenin-induced oedema test (anti-inflammatory activity); assay type: in vivo, albino male Wistar rats
[2] = system: phenyl-p-quinone-induced writhing (abdominal contractions); assay: phenylquinone-induced writhing test (analgesic activity), compound given 30 min before phenyl-p-quinone; assay type: in vivo, male Wistar rats
How it was run: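 Male Wistar rats (110±5 g), fasted 14 h, received test compounds orally or parenterally in 0.5% CMC/saline vehicle 30 min before 2 ml of 0.36% phenyl-p-quinone in 5% ethanol.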

[3] = system: mucus secreted by the respiratory airway; assay: antisecretory activity, respiratory mucus secretion; assay type: in vivo, albino male New Zealand rabbits; conditions: vs control group
How it was run: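 Male New Zealand rabbits, groups of four, urethane-anaesthetised (1.1 g/kg i.p.) with tracheal Y cannula breathing 100%-humidity air at 39° C. Mucus collected and measured 3 and 6 h post-dose; change expressed as percent difference from vehicle controls.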

[4] = system: cough provoked by mechanical stimulation of the tracheal bifurcation mucosa; assay: antitussive activity, mechanically provoked coughing; assay type: in vivo, albino Guinea-pigs; conditions: 1 h after administration
How it was run: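 Albino guinea-pigs (300 g) with a tracheal Y cannula; coughing provoked by mechanically stimulating the tracheal bifurcation mucosa with a boar's hair.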

in vivo [5] = conditions: mouse
in vivo [6] = conditions: rat
[7] = 25 mg/Kg, Table IV (route not given), 2 h
[8] = 25 mg/Kg, Table IV (route not given), 4 h
[9] = 25 mg/Kg, Table IV (route not given), 6 h
[10] = 25 mg/Kg, Table IV (route not given), 24 h
[11] = 25 mg/Kg, Table IV (route not given), 48 h
[12] = 25 mg/Kg, Table IV (route not given), 72 h
[13] = 50 mg/Kg, Table IV (route not given), 2 h
[14] = 50 mg/Kg, Table IV (route not given), 4 h
[15] = 50 mg/Kg, Table IV (route not given), 6 h
[16] = 50 mg/Kg, Table IV (route not given), 24 h
[17] = 50 mg/Kg, Table IV (route not given), 48 h
[18] = 50 mg/Kg, Table IV (route not given), 72 h
[19] = 100 mg/Kg, Table IV (route not given), 2 h
[20] = 100 mg/Kg, Table IV (route not given), 4 h
[21] = 100 mg/Kg, Table IV (route not given), 6 h
[22] = 100 mg/Kg, Table IV (route not given), 24 h
[23] = 100 mg/Kg, Table IV (route not given), 48 h
[24] = 100 mg/Kg, Table IV (route not given), 72 h

## Cc1ccc(C(=O)c2ccc(CC(=O)N3CCN(C)CC3)n2C)cc1 [Compound 3-b, 1-methyl-5-p-toluoylpyrrole-2-N-[(4-methyl)-1-piperazinyl] acetamide]
[1]; 25 mg/Kg per os, 2 h
  oedema % inhibition: 28.1%
[1]; 25 mg/Kg per os, 4 h
  oedema % inhibition: 33.4%
[1]; 25 mg/Kg per os, 6 h
  oedema % inhibition: 30.0%
[1]; 25 mg/Kg per os, 24 h
  oedema % inhibition: 10.2%
[1]; 25 mg/Kg per os, 48 h
  oedema % inhibition: 0.0%
[1]; 25 mg/Kg per os, 72 h
  oedema % inhibition: 0.0%
[1]; [7]
  oedema % inhibition: 33.2%
[1]; [8]
  oedema % inhibition: 36.0%
[1]; [9]
  oedema % inhibition: 30.0%
[1]; [10]
  oedema % inhibition: 10.0%
[1]; [11]
  oedema % inhibition: 0.0%
[1]; [12]
  oedema % inhibition: 0.0%
[1]; 50 mg/Kg per os, 2 h
  oedema % inhibition: 49.1%
[1]; 50 mg/Kg per os, 4 h
  oedema % inhibition: 48.0%
[1]; 50 mg/Kg per os, 6 h
  oedema % inhibition: 49.7%
[1]; 50 mg/Kg per os, 24 h
  oedema % inhibition: 15.2%
[1]; 50 mg/Kg per os, 48 h
  oedema % inhibition: 0.0%
[1]; 50 mg/Kg per os, 72 h
  oedema % inhibition: 0.0%
[1]; [13]
  oedema % inhibition: 52.3%
[1]; [14]
  oedema % inhibition: 55.6%
[1]; [15]
  oedema % inhibition: 58.9%
[1]; [16]
  oedema % inhibition: 11.2%
[1]; [17]
  oedema % inhibition: 0.0%
[1]; [18]
  oedema % inhibition: 0.0%
[1]; 100 mg/Kg per os, 2 h
  oedema % inhibition: 69.7%
[1]; 100 mg/Kg per os, 4 h
  oedema % inhibition: 68.0%
[1]; 100 mg/Kg per os, 6 h
  oedema % inhibition: 69.0%
[1]; 100 mg/Kg per os, 24 h
  oedema % inhibition: 35.0%
[1]; 100 mg/Kg per os, 48 h
  oedema % inhibition: 8.9%
[1]; 100 mg/Kg per os, 72 h
  oedema % inhibition: 0.0%
[1]; [19]
  oedema % inhibition: 73.4%
[1]; [20]
  oedema % inhibition: 77.1%
[1]; [21]
  oedema % inhibition: 72.9%
[1]; [22]
  oedema % inhibition: 25.6%
[1]; [23]
  oedema % inhibition: 1.4%
[1]; [24]
  oedema % inhibition: 0.0%
[2]; 5 mg/Kg i.p.
  % Protection: 28.0%
[2]; 5 mg/Kg per os
  % Protection: 20.0%
[2]; 10 mg/Kg i.p.
  % Protection: 50.0%
[2]; 10 mg/Kg per os
  % Protection: 52.0%
[2]; 20 mg/Kg i.p.
  % Protection: 80.3%
[2]; 20 mg/Kg per os
  % Protection: 78.0%
[3]; 50 mg/Kg i.p., 3 h
  % difference in mucus secretion: -12%
[3]; 50 mg/Kg i.p., 6 h
  % difference in mucus secretion: -10%
[3]; 50 mg/Kg per os, 3 h
  % difference in mucus secretion: -9%
[3]; 50 mg/Kg per os, 6 h
  % difference in mucus secretion: -5%
[3]; 75 mg/Kg i.p., 3 h
  % difference in mucus secretion: -25%
[3]; 75 mg/Kg i.p., 6 h
  % difference in mucus secretion: -22%
[3]; 75 mg/Kg per os, 3 h
  % difference in mucus secretion: -18%
[3]; 75 mg/Kg per os, 6 h
  % difference in mucus secretion: -10%
[3]; 100 mg/Kg i.p., 3 h
  % difference in mucus secretion: -40%
[3]; 100 mg/Kg i.p., 6 h
  % difference in mucus secretion: -36%
[3]; 100 mg/Kg per os, 3 h
  % difference in mucus secretion: -36%
[3]; 100 mg/Kg per os, 6 h
  % difference in mucus secretion: -30%
[4]; 50 mg/Kg i.p.
  % inhibition, cough amplitude: 20%
  % inhibition, cough frequency: 28%
[4]; 50 mg/Kg per os
  % inhibition, cough amplitude: 18%
  % inhibition, cough frequency: 29%
[4]; 75 mg/Kg i.p.
  % inhibition, cough amplitude: 30%
  % inhibition, cough frequency: 20%
[4]; 75 mg/Kg per os
  % inhibition, cough amplitude: 30%
  % inhibition, cough frequency: 18%
[4]; 100 mg/Kg i.p.
  % inhibition, cough amplitude: 52%
  % inhibition, cough frequency: 40%
[4]; 100 mg/Kg per os
  % inhibition, cough amplitude: 45%
  % inhibition, cough frequency: 39%
In vivo [5]; ip
  LD50: 770 mg/kg
In vivo [5]; po
  LD50: 1200 mg/kg
In vivo [6]; ip
  LD50: 590 mg/kg
In vivo [6]; po
  LD50: 1000 mg/kg

## Cc1ccc(C(=O)c2ccc(CC(=O)N3CCOCC3)n2C)cc1 [Compound 3-a, 1-methyl-5-p-toluoylpyrrole-2-N-(4-morpholinyl) acetamide]
[1]; 25 mg/Kg per os, 2 h
  oedema % inhibition: 27.1%
[1]; 25 mg/Kg per os, 4 h
  oedema % inhibition: 29.0%
[1]; 25 mg/Kg per os, 6 h
  oedema % inhibition: 32.3%
[1]; 25 mg/Kg per os, 24 h
  oedema % inhibition: 7.1%
[1]; 25 mg/Kg per os, 48 h
  oedema % inhibition: 0.0%
[1]; 25 mg/Kg per os, 72 h
  oedema % inhibition: 0.0%
[1]; [7]
  oedema % inhibition: 28.9%
[1]; [8]
  oedema % inhibition: 32.7%
[1]; [9]
  oedema % inhibition: 34.0%
[1]; [10]
  oedema % inhibition: 10.1%
[1]; [11]
  oedema % inhibition: 0.0%
[1]; [12]
  oedema % inhibition: 0.0%
[1]; 50 mg/Kg per os, 2 h
  oedema % inhibition: 46.0%
[1]; 50 mg/Kg per os, 4 h
  oedema % inhibition: 49.1%
[1]; 50 mg/Kg per os, 6 h
  oedema % inhibition: 48.0%
[1]; 50 mg/Kg per os, 24 h
  oedema % inhibition: 13.4%
[1]; 50 mg/Kg per os, 48 h
  oedema % inhibition: 0.0%
[1]; 50 mg/Kg per os, 72 h
  oedema % inhibition: 0.0%
[1]; [13]
  oedema % inhibition: 50.7%
[1]; [14]
  oedema % inhibition: 48.9%
[1]; [15]
  oedema % inhibition: 42.0%
[1]; [16]
  oedema % inhibition: 11.2%
[1]; [17]
  oedema % inhibition: 0.0%
[1]; [18]
  oedema % inhibition: 0.0%
[1]; 100 mg/Kg per os, 2 h
  oedema % inhibition: 60.0%
[1]; 100 mg/Kg per os, 4 h
  oedema % inhibition: 55.2%
[1]; 100 mg/Kg per os, 6 h
  oedema % inhibition: 69.7%
[1]; 100 mg/Kg per os, 24 h
  oedema % inhibition: 18.1%
[1]; 100 mg/Kg per os, 48 h
  oedema % inhibition: 0.0%
[1]; 100 mg/Kg per os, 72 h
  oedema % inhibition: 0.0%
[1]; [19]
  oedema % inhibition: 69.8%
[1]; [20]
  oedema % inhibition: 69.0%
[1]; [21]
  oedema % inhibition: 63.0%
[1]; [22]
  oedema % inhibition: 13.1%
[1]; [23]
  oedema % inhibition: 0.0%
[1]; [24]
  oedema % inhibition: 0.0%
[2]; 5 mg/Kg i.p.
  % Protection: 18.0%
[2]; 5 mg/Kg per os
  % Protection: 16.0%
[2]; 10 mg/Kg i.p.
  % Protection: 48.0%
[2]; 10 mg/Kg per os
  % Protection: 39.0%
[2]; 20 mg/Kg i.p.
  % Protection: 76.0%
[2]; 20 mg/Kg per os
  % Protection: 65.0%
[3]; 50 mg/Kg i.p., 3 h
  % difference in mucus secretion: -10%
[3]; 50 mg/Kg i.p., 6 h
  % difference in mucus secretion: -7%
[3]; 50 mg/Kg per os, 3 h
  % difference in mucus secretion: -7%
[3]; 50 mg/Kg per os, 6 h
  % difference in mucus secretion: -8%
[3]; 75 mg/Kg i.p., 3 h
  % difference in mucus secretion: -20%
[3]; 75 mg/Kg i.p., 6 h
  % difference in mucus secretion: -18%
[3]; 75 mg/Kg per os, 3 h
  % difference in mucus secretion: -15%
[3]; 75 mg/Kg per os, 6 h
  % difference in mucus secretion: -10%
[3]; 100 mg/Kg i.p., 3 h
  % difference in mucus secretion: -38%
[3]; 100 mg/Kg i.p., 6 h
  % difference in mucus secretion: -29%
[3]; 100 mg/Kg per os, 3 h
  % difference in mucus secretion: -32%
[3]; 100 mg/Kg per os, 6 h
  % difference in mucus secretion: -25%
[4]; 50 mg/Kg i.p.
  % inhibition, cough amplitude: 20%
  % inhibition, cough frequency: 15%
[4]; 50 mg/Kg per os
  % inhibition, cough amplitude: 15%
  % inhibition, cough frequency: 16%
[4]; 75 mg/Kg i.p.
  % inhibition, cough amplitude: 30%
  % inhibition, cough frequency: 16%
[4]; 75 mg/Kg per os
  % inhibition, cough amplitude: 30%
  % inhibition, cough frequency: 18%
[4]; 100 mg/Kg i.p.
  % inhibition, cough amplitude: 40%
  % inhibition, cough frequency: 56%
[4]; 100 mg/Kg per os
  % inhibition, cough amplitude: 35%
  % inhibition, cough frequency: 45%
In vivo [5]; ip
  LD50: 1500 mg/kg
In vivo [5]; po
  LD50: > 2000 mg/kg
In vivo [6]; ip
  LD50: 1370 mg/kg
In vivo [6]; po
  LD50: > 2400 mg/kg
